≈ marks a conversion by molar mass, not a printed value. Calls of active or inactive are those of the source.

Series [1] relates to Acinetobacter baumannii. Description: Antibacterial activity against carbapenem-resistant Acinetobacter baumannii (12-666) assessed as inhibition of microbial growth up to 50 ug/ml incubated for 24 hrs by microdilution assay. Format: functional. (In broth dilution the organism is exposed to a series of concentrations in liquid medium.)
Series [2] has as its system Escherichia coli. Description: Antibacterial activity against extended-spectrum beta-lactamase-positive Escherichia coli (14-2081) assessed as inhibition of microbial growth up to 50 ug/ml incubated for 24 hrs by microdilution assay. It counts as functional.
The subject of series [3] is Escherichia coli. Description: Antibacterial activity against oxacillin-resistant Escherichia coli OXA-48 assessed as inhibition of microbial growth up to 50 ug/ml incubated for 24 hrs by microdilution assay. It counts as functional.
For series [4], the system named is Pseudomonas aeruginosa. As to the kind of experiment: Antibacterial activity against carbapenem-resistant Pseudomonas aeruginosa (13-1391) assessed as inhibition of microbial growth up to 50 ug/ml incubated for 48 hrs by microdilution assay. Format: functional.
Series [5] relates to Klebsiella pneumoniae. As to the kind of experiment: Antibacterial activity against NDM-1 positive Klebsiella pneumoniae (14-3335) assessed as inhibition of microbial growth up to 50 ug/ml incubated for 24 hrs by microdilution assay. It counts as functional.
In series [6] the test system is Klebsiella pneumoniae. Description: Antibacterial activity against extended-spectrum beta-lactamase-positive Klebsiella pneumoniae (14-2081) assessed as inhibition of microbial growth up to 50 ug/ml incubated for 24 hrs by microdilution assay. Format: functional.
Series [7] deals with Providencia rettgeri. Description: Antibacterial activity against NDM-1 positive Providencia rettgeri assessed as inhibition of microbial growth up to 50 ug/ml incubated for 24 hrs by microdilution assay. Format: functional.
In series [8] the test system is Stenotrophomonas maltophilia. Description: Antibacterial activity against trimethoprim-sulfamethoxazole-resistant Stenotrophomonas maltophilia assessed as inhibition of microbial growth up to 50 ug/ml incubated for 24 hrs by microdilution assay. It counts as functional.
In series [9] the test system is Mycobacterium tuberculosis. As to the kind of experiment: Antimycobacterial activity against Mycobacterium tuberculosis H37Rv ATCC 27294 assessed as inhibition of mycobacterial growth incubated for 2 weeks by MABA method. It counts as functional. For orientation: Alamar Blue is a resazurin reagent that responds to reducing activity.
Series [10] deals with Mycobacterium tuberculosis. As to the kind of experiment: Antimycobacterial activity against Mycobacterium tuberculosis H37Rv ATCC 27294 assessed as inhibition of mycobacterial growth up to 50 ug/ml incubated for 2 weeks by MABA method. Format: functional.
The subject of series [11] is Vero. Description: Cytotoxicity against African green monkey Vero cells assessed as reduction in cell viability incubated for 24 hrs by trypan blue staining based assay. The note with it: Chlorocebus sabaeus.
A short description of series [12]: Selectivity index, ratio of IC50 for cytotoxicity against African green monkey Vero cells to MIC for Mycobacterium tuberculosis H37Rv ATCC 27294. Format: toxicity, cell-based. The following applies: read-out: Selectivity Index.

As to `COc1cc(C[C@@H](C)[C@@H](C)Cc2ccc(OC(=O)c3ccccc3[N+](=O)[O-])c(OC)c2)ccc1OC(=O)c1ccccc1[N+](=O)[O-]`, the result in series [1], in [2], in series [3], in [4], in [5] and in series [6] was inactive. Besides, the outcome in [7] and in series [8] was inactive. The “-logMIC” value in series [9] was determined as 4.03. For the same molecule, the “growth inhibition (GI)” value in series [10] was “inactive”.
In the case of `CCCCCCCC/C=C\CCCCCCCC(=O)Oc1ccc(C[C@@H](C)[C@@H](C)Cc2ccc(OC(=O)CCCCCCC/C=C\CCCCCCCC)c(OC)c2)cc1OC`, the outcome in series [1], in [2], in [3], in series [4], in series [5] and in [6] was inactive. Moreover, the outcome in series [7] and in [8] was inactive. The “-logMIC” value in [9] was determined as 4.88. In [10], the “growth inhibition (GI)” value was “inactive”.
As to `COc1cc(C[C@@H](C)[C@@H](C)Cc2ccc(OC(=O)c3ccccn3)c(OC)c2)ccc1OC(=O)c1ccccn1`, the outcome in series [1], in series [2], in series [3], in series [4], in series [5] and in [6] was inactive. Also, the result in series [7] and in series [8] was inactive. In addition, the “-logMIC” value in series [9] stood at 3.92. For the same molecule, in series [10], the “growth inhibition (GI)” value was “inactive”.
Consider `COc1cc(C[C@@H](C)[C@@H](C)Cc2ccc(OC(=O)c3ccc(Br)cc3)c(OC)c2)ccc1OC(=O)c1ccc(Br)cc1`, for which the result in series [1], in [2], in series [3], in series [4], in [5] and in series [6] was inactive. The outcome in [7] and in series [8] was inactive. For the same molecule, the “-logMIC” value in [9] is recorded as 4.09. In series [10], the “growth inhibition (GI)” value is “inactive”.
Regarding `CCCC(=O)Oc1ccc(C[C@@H](C)[C@@H](C)Cc2ccc(OC(=O)CCC)c(OC)c2)cc1OC`, the outcome in series [1], in [2], in [3], in [4], in [5] and in [6] was inactive. Also, the result in [7] and in series [8] was inactive. For the same molecule, the “-logMIC” value in series [9] came out at 4.04. Moreover, the “growth inhibition (GI)” value in [10] is “inactive”.
Take `CCCCCCCCCCCCCCCC(=O)Oc1ccc(C[C@@H](C)[C@@H](C)Cc2ccc(OC(=O)CCCCCCCCCCCCCCC)c(OC)c2)cc1OC`: the outcome in series [1], in [2], in series [3], in series [4], in series [5] and in [6] was inactive. Further, the result in series [7] and in series [8] was inactive. The “-logMIC” value in [9] is 4.02. Besides, in series [10], the “growth inhibition (GI)” value was “inactive”.
For `CCCCCCCCCCCCCCCCCC(=O)Oc1ccc(C[C@@H](C)[C@@H](C)Cc2ccc(OC(=O)CCCCCCCCCCCCCCCCC)c(OC)c2)cc1OC`, the result in [1], in series [2], in series [3], in series [4], in [5] and in series [6] was inactive. For the same molecule, the outcome in [7] and in [8] was inactive. Moreover, the “-logMIC” value in series [9] stood at 3.85. Besides, the “growth inhibition (GI)” value in [10] is “inactive”.
Take `COc1cc(C[C@@H](C)[C@@H](C)Cc2ccc(OC(=O)c3ccccc3)c(OC)c2)ccc1OC(=O)c1ccccc1`: the result in [1], in [2], in series [3], in series [4], in series [5] and in series [6] was inactive. The result in series [7] and in [8] was inactive. Moreover, the “-logMIC” value in [9] was found to be 4.14. The “growth inhibition (GI)” value in series [10] is “inactive”.
With `CCCCCCCCCCCCCCCCCC(=O)Oc1ccc(C[C@H](C)[C@H](C)Cc2ccc(O)c(OC)c2)cc1OC` (racemic), the result in series [1], in series [2], in series [3], in [4], in series [5] and in series [6] was inactive. For the same molecule, the result in series [7] and in [8] was inactive. Moreover, the “-logMIC” value in series [9] is given as 3.84. Also, the “growth inhibition (GI)” value in series [10] was “inactive”.
As for `CCCCCCCC/C=C\CCCCCCCC(=O)Oc1ccc(C[C@H](C)[C@H](C)Cc2ccc(O)c(OC)c2)cc1OC` (racemic), the result in series [1], in series [2], in [3], in series [4], in [5] and in series [6] was inactive. Further, the result in series [7] and in [8] was inactive. In addition, the “-logMIC” value in [9] stood at 4.51. Moreover, the “growth inhibition (GI)” value in series [10] was “inactive”.
In the case of `COc1cc(C[C@@H](C)[C@@H](C)Cc2ccc(OC(=O)c3ccccc3)c(OC)c2)ccc1O` (racemic), the outcome in [1], in [2], in series [3], in [4], in series [5] and in [6] was inactive. Further, the result in series [7] and in series [8] was inactive. For the same molecule, the IC50 (commonly the concentration that gives 50% inhibition) in series [11] is 125 µg/mL (≈ 287 µM). Moreover, the “-logMIC” value in [9] is given as 4.61. Also, in [9] (Mycobacterium tuberculosis, H37Rv ATCC 27294, 336 h), the MIC (commonly the smallest concentration in the dilution series that meets the test's criterion for growth inhibition) worked out at 12.5 µg/mL (≈ 28.8 µM). In addition, in series [12], the selectivity ratio turned out to be 9.97.
For `CCCC(=O)Oc1ccc(C[C@H](C)[C@H](C)Cc2ccc(O)c(OC)c2)cc1OC` (racemic), the result in series [1], in series [2], in series [3], in series [4], in series [5] and in series [6] was inactive. The result in [7] and in series [8] was inactive. For the same molecule, in [9], the “-logMIC” value is on record as 3.94. The “growth inhibition (GI)” value in [10] is “inactive”.
Consider `COc1cc(C[C@@H](C)[C@@H](C)Cc2ccc(OCCN3CCOCC3)c(OC)c2)ccc1O` (racemic), for which the result in series [1], in series [2], in [3], in [4], in series [5] and in series [6] was inactive. The result in series [7] and in series [8] was inactive. Besides, the “growth inhibition (GI)” value in series [10] is “inactive”.
Regarding `COc1ccc(C[C@@H](C)[C@@H](C)Cc2ccc(OC)c(OC)c2)cc1OC` [TERAMEPROCOL], the result in series [1], in [2], in series [3], in series [4], in series [5] and in series [6] was inactive. In addition, the result in series [7] and in [8] was inactive. In series [9], the “-logMIC” value worked out at 4.35. The “growth inhibition (GI)” value in series [10] is “inactive”.

Values taken from ChEMBL document CHEMBL4043204, “meso-Dihydroguaiaretic acid derivatives with antibacterial and antimycobacterial activity” (Bioorg Med Chem, 2017).
